Data from patent US20110071094A1, “(D)-ALLOSE INDUCING PROGRAMMED CELL DEATH IN HORMONE REFRACTORY PROSTATE CANCER LINES” (INDUSTRY-ACADEMIC COOPERATION FOUDATION, GYEONGSANG …, priority 2008, published 2011).

Key:
DU145 cell line [1] = assay: Quantification of apoptosis by annexin-V/PI flow cytometry; assay type: cell-based, human
Description: The Annexin-V-FLUOS Staining Kit (Roche Diagnostics GmbH, Mannheim, Germany) was used for the detection and quantification of the apoptotic cells. This kit uses a dual-staining protocol in which the apoptotic cells are stained with annexin-V (green fluorescence) and the necrotic cells are stained with propidium iodide (PI, red fluorescence). Briefly, DU145 cell line was grown at a density of 1×10^6 cells in triplicate culture plates and then treated with D-allose (0, 20 and 40 mM) for 48 and 72 h. The cells were treated with trypsin and harvested with PBS and processed for labeling with annexin-V and PI by the use of the kit according to the manufacturer's protocol. The fluorescence was measured by flow cytometric analysis, performed on a FACSCalibur (Becton Dickinson, San Jose, Calif., USA) using 488 nm excitation and a 515 nm band pass filter for fluorescein detection and a filter [600 nm for PI detection (FL1: Annexin-V-FLUOS; FL2: PI). Further, apoptotic indices were measured by analysis of fragmented or scattered nuclei and condensed chromosome as the stringent morphological criteria of apoptosis, detectable by confocal microscopy on cells stained with DNA-intercalating dye […] (DAPI). For this purpose, DU145 and PrEC cell lines were exposed to 0, 20 and 40 mM of D-allose for up to 72 h, stained with DAPI (1 μg/ml in methanol), mounted with Prolong Antifade reagent (Molecular Probes, Eugene, Oreg., USA), and images were acquired by use of a confocal laser scanning microscope (Fluoview FV 1000, Olympus, Japan). The numbers of apoptotic nuclei per 100 cells were counted from the five high power fields/slide and apoptotic indices were expressed as a percentage of the untreated controls in each cell line, considering the value as 100%. DU145 cell line was also treated with 0-40 mM of D-glucose for determination of apoptotic indices as mentioned above.

DU145 cell line [2] = assay: Cell viability / cell growth, MTT assay; assay type: cell-based, human
Description: DU145 (human HRPC cell line, derived from a patient with brain metastasis) and PrEC (human normal prostate epithelial cell line) cell lines were obtained from Korea Cell Line Bank (KCLB, Seoul, South Korea). DU145 and PrEC cell lines were grown in triplicate culture plates containing RPMI-1640 (HyClone, Logan, Utah, USA) and Dulbecco's Modified Eagle's Medium (HyClone, Logan, Utah, USA) respectively, and kept in a humidified atmosphere containing 5% CO2 at 37° C. for 72 h. The media were supplemented with 10% heat-inactivated fetal bovine serum (HyClone, Logan, Utah, USA), 1% antibio-antimicotic solution containing 10,000 units/ml of penicillin and 10 mg/ml of streptomycin (HyClone, Logan, Utah, USA), HEPES, sodium bicarbonate, p-aminobenzoic acid and insulin (complete culture media). D-Allose was purchased from Sigma (St. Louis, Mo., USA) and dissolved at a concentration of 1 M in sterile phosphate-buffered saline (PBS), and was further sterilized by filtration. To examine the dose- and time-dependent effects, the cell lines (70-80% confluent) were treated with 0-40 mM of D-allose for up to 72 h, whereas without D-allose treated cell lines (0 mM) were considered as control. DU145 cell line was also treated with 0-40 mM of D-glucose. All the other chemicals used in the work were procured from Sigma (St. Louis, Mo., USA), unless otherwise specified.
The logarithmic growth phase of DU145 and PrEC cell lines were taken for growth assay using 3-[4,5-dimethylthiazol-2-yl]-2,5-diphenyl tetrazolium bromide (MTT). […] After incubation for the specified time at 37° C. in a humidified 5% CO2 incubator, cell viability was determined. […] To achieve solubilization of formazan crystal formed in viable cells, DMSO was added to each well, and the absorbance was recorded on a microplate reader at 595 nm wavelength. The effect of sugars on growth inhibition was assessed as percent cell viability where control cells were taken as 100% viable.

For `O=C[C@H](O)[C@H](O)[C@H](O)[C@H](O)CO` [D-allose], the “apoptotic cells (annexin-V/PI)” value (DU145 cell line [1]; DU145, 20 mM, 48 h, untreated control 1.2%) was 5.1%, the “apoptotic cells (annexin-V/PI)” value (DU145 cell line [1]; DU145, 20 mM, untreated control 2.3%) was 11.9% and the “apoptotic cells (annexin-V/PI)” value (DU145 cell line [1]; DU145, 40 mM, 48 h, untreated control 1.2%) was 8.7%. The “apoptotic cells (annexin-V/PI)” value (DU145 cell line [1]; DU145, 40 mM, untreated control 2.3%) was 23.5%, the “cell growth (MTT assay)” value (DU145 cell line [2]; DU145, 0-40 mM, compared to control) was “significant dose-dependent inhibition of cell growth” and the “time dependence of cell growth inhibition (MTT assay)” value (DU145 cell line [2]; DU145, 24, 48 and 72 h) was “time-dependent inhibition of DU145 cell growth, which was more pronounced at 72 h post-treatment”.
